In ChEMBL document CHEMBL1130668, “Synthesis and evaluation of paclitaxel C7 derivatives: solution phase synthesis of combinatorial libraries” (1998):
Activity calls are given as the source filed them.

How the values were obtained:
MCF7 [1] = assay: Cytotoxicity activity was measured against human breast cancer cell line MCF-7 with respect to ED50 of paclitaxel (2 nM); IA inactive; type: functional, cell-based
MCF7 [2] = assay: Cytotoxicity activity was measured against resistant human breast cancer cell line MCF-7 with respect to ED50 of paclitaxel (2200-3700 nM); IA inactive; type: functional, cell-based
[3] = Ratio in tubulin to that of paclitaxel (0.3 uM) in microtubule assembly assay; IA inactive; type: functional

CC(=O)O[C@H]1C(=O)[C@]2(C)[C@@H](OC(=O)CCc3ccccc3)C[C@H]3OC[C@@]3(OC(C)=O)[C@H]2[C@H](OC(=O)c2ccccc2)[C@]2(O)C[C@H](OC(=O)[C@H](O)[C@@H](NC(=O)c3ccccc3)c3ccccc3)C(C)=C1C2(C)C
inactive: ED50 (MCF7 [1]) | ED50 (MCF7 [2]) | Ratio [3]
